Results from ChEMBL document CHEMBL5661979, “Pharmacological inhibition of BMK1 suppresses tumor growth through promyelocytic leukemia protein” (Cancer Cell, 2010).

Key:
[1] = molecular target: Serine/threonine-protein kinase SMG1 (Homo sapiens, UniProt Q96Q15); assay: Inhibition of SMG1 in human HeLa cells lysate pre incubated for 15 mins followed by ATP acyl phosphate probe addition and measured after 10 mins by LC-MS/MS analysis; format: subcellular
[2] = molecular target: c-Jun N-terminal kinase, JNK (Homo sapiens, UniProt P45983+P53779+P45984); assay: Inhibition of JNK1/JNK2/JNK3 in human HeLa cells lysate at 50 uM pre incubated for 15 mins followed by ATP acyl phosphate probe addition and measured after 10 mins by LC-MS/MS analysis relative to control; format: subcellular; settings: time 25.0 min

Sequence of Serine/threonine-protein kinase SMG1 (Q96Q15 whole entry): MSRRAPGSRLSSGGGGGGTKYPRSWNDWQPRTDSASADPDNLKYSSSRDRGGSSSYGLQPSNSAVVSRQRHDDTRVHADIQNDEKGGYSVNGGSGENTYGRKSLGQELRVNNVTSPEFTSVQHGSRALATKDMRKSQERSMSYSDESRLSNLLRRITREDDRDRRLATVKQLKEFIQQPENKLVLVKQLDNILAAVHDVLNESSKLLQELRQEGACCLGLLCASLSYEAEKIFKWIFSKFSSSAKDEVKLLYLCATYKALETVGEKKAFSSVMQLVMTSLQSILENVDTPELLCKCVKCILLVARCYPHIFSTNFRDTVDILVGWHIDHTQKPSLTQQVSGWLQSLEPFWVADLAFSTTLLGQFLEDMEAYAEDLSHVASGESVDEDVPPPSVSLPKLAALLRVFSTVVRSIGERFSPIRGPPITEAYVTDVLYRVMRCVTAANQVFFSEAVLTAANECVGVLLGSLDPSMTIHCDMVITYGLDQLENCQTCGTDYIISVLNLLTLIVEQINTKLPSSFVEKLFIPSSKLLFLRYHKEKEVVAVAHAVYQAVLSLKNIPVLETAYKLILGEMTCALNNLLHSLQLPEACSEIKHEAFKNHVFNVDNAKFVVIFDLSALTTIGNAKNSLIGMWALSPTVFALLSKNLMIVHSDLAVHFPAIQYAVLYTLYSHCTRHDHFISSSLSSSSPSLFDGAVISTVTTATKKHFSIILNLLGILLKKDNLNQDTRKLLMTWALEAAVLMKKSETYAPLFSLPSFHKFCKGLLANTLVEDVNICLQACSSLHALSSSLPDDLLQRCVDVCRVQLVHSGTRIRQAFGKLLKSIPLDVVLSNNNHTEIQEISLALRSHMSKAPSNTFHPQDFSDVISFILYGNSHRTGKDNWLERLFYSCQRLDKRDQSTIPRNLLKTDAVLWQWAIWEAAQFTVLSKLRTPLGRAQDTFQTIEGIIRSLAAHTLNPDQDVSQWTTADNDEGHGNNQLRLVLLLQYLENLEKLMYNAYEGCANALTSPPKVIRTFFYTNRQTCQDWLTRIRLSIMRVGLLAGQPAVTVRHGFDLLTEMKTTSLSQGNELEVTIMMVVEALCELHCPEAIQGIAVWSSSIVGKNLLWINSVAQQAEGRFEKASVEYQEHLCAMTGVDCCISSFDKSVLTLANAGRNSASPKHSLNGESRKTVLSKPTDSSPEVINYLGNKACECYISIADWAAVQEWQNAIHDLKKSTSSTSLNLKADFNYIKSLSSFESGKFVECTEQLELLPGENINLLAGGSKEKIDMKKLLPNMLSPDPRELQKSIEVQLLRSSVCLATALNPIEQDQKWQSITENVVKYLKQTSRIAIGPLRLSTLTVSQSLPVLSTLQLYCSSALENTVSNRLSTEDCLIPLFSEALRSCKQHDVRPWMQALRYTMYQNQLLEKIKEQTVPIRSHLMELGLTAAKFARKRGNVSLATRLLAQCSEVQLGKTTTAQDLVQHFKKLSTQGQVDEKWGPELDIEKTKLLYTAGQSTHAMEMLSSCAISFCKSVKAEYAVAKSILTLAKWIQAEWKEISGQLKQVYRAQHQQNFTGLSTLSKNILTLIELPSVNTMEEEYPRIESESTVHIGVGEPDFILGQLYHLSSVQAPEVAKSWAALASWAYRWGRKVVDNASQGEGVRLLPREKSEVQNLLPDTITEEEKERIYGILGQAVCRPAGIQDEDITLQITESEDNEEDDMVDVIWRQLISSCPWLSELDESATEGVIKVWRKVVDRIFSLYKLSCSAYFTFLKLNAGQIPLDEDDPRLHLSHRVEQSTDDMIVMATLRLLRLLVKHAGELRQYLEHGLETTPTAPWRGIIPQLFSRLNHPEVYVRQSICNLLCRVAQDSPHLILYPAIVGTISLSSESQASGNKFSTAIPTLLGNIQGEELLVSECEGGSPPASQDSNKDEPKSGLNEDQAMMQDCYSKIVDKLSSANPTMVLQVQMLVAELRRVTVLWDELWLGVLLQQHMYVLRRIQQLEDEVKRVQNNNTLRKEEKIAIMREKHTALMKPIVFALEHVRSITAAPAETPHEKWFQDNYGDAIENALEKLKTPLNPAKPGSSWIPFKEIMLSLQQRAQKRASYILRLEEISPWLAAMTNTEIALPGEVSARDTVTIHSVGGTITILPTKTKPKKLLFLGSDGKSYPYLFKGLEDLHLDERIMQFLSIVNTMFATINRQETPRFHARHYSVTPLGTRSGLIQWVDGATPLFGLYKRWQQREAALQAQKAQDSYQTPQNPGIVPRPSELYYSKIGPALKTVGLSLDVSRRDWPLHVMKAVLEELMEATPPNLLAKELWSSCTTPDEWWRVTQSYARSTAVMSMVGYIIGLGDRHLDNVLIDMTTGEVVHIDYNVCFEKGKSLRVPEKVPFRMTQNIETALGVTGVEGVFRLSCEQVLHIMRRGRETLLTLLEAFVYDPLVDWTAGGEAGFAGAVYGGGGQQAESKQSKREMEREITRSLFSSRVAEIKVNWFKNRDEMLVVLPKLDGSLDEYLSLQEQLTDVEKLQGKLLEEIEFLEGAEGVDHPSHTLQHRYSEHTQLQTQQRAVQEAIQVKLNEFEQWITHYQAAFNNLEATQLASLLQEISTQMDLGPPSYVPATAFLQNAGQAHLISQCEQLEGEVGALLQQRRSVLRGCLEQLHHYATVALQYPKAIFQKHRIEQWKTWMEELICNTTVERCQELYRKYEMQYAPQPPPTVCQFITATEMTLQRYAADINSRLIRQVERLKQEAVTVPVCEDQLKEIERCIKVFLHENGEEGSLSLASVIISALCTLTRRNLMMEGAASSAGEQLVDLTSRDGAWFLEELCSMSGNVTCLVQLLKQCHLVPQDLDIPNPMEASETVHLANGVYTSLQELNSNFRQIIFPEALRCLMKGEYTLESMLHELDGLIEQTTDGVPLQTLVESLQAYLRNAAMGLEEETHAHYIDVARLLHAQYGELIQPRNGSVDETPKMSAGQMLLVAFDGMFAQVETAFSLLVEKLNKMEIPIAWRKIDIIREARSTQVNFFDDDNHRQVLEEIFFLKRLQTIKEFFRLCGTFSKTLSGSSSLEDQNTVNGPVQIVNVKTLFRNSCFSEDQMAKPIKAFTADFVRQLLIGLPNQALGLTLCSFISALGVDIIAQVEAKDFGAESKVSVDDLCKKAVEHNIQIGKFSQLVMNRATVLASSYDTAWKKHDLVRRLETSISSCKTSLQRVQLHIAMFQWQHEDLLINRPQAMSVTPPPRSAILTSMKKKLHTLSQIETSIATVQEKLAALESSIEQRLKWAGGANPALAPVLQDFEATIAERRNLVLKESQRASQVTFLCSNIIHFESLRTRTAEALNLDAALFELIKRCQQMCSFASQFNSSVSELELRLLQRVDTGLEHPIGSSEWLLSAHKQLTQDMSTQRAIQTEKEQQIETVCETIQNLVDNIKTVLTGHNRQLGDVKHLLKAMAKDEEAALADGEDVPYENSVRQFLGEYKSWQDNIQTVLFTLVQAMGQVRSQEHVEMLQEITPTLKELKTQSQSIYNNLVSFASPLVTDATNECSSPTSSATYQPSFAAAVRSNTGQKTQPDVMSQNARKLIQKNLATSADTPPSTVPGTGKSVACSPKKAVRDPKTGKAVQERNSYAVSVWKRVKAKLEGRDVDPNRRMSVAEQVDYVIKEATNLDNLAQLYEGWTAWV

CCOc1cc(N2CCC(O)CC2)ccc1Nc1ncc2c(n1)N(C)c1ccccc1C(=O)N2C
IC50 [1]: > 50 µM | inhibition [2]: -0.6%
